In patent publication US6932990B2, “Carbohydrate absorption inhibitor and method for manufacturing the same” (Oryza Oil & Fat Chemical Co., Ltd., priority 2000, dated 2005):
Converted amounts (≈) assume the structure as drawn. Like-named read-outs stand apart in the source and are kept apart here.

Legend:
[1] = biological target: α-glucosidase (acetone powder in the intestinal canal of rat); experiment: α-glucosidase inhibitory activity (4-methylumbelliferyl-α-D-glucoside, fluorometry); assay type: biochemical
Procedure: Next, α-glucosidase inhibitory activity (%) in regard to the embodiment 1 (evening primrose seed extract) was identified by the following method. As for the α-glucosidase for this measurement, 0.1 mol maleic acid buffer solution (pH 6.0) was added to the acetone powder in the intestinal canal of rat (SIGMA CHEMICAL CO.) and homogenized in ice by using a glass homogenizer, and then centrifugalized supernatant was diluted 20 times. Measuring method is shown below. […] After that, the reaction was suspended by adding 3 ml glycin buffer solution (pH 10.3) and the quantity of the isolated 4-methylumbelliferyl was determined by using a fluorometer (excitation wavelength: 366 nm & fluorescent wavelength: […]). Enzyme activity was calculated based on this determined value and inhibitory activity (%) was calculated by the following formula. […] Inhibitory activity (%)=100−Enzyme activity (%)

[2] = biological target: T1, α-amylase derived from pancreas of pig (Sus scrofa, UniProt P00690); experiment: Inhibitory activity against α-amylase derived from pancreas of pig (same method); assay type: biochemical
T1 construct: the α-amylase derived from pancreas of pig; from tissue; host or cells: pig pancreas
T1 sequence (P00690 16-511): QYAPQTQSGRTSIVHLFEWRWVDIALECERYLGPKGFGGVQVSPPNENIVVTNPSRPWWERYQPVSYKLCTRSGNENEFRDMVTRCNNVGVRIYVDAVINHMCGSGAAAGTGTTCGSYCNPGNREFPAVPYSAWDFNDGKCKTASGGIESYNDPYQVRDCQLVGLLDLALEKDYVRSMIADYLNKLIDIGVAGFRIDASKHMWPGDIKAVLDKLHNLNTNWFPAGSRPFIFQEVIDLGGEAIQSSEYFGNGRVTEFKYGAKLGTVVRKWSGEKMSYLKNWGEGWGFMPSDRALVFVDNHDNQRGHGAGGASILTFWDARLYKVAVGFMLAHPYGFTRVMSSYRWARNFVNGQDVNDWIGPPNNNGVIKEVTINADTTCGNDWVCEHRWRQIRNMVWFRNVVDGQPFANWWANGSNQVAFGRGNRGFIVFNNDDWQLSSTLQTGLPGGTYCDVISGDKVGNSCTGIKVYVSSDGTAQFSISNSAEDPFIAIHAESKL

Compound	IC50 (50% inhibitory concentration) against α-glucosidase [1] [µg/mL]	IC50 [2] [µM]	IC50 ([2]; read-out: IC50 against the α-amylase derived from pancreas of pig (converted)) [µM]
O=c1oc2c(O)c(O)cc3c(=O)oc4c(O)c(O)cc1c4c23 [Ellagic acid]	>80		
O=C(O)c1cc(O)c(O)c(O)c1 [Gallic acid]	800 (≈ 4700 µM)	2350	
O=C(OC[C@H]1O[C@@H](OC(=O)c2cc(O)c(O)c(O)c2)[C@H](OC(=O)c2cc(O)c(O)c(O)c2)[C@@H](OC(=O)c2cc(O)c(O)c(O)c2)[C@@H]1OC(=O)c1cc(O)c(O)c(O)c1)c1cc(O)c(O)c(O)c1 [Pentagalloylglucose]			21.3
Catechin	800		
